Laboratory results reported in PubChem BioAssay (NCI).
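These data come from cells grown in 96-well plates and exposed to compound for 48 hours at five concentrations. The concentration for 50% growth inhibition is given as GI50. The concentration for full growth arrest is given as TGI.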 *1 amine or outer side, *2 acyl side, *3 side chain or, on linkers, in order; H or OH if unused. Where a SMILES comes first, the peptide text is derived from it. Bridges are numbered along the chain shown (N, C = ends). [ ]: non-standard residue; d: D form. The star is where a group is joined. ξ: configuration not given here. Phe(3,5-F2) = N[C@@H](Cc1cc(F)cc(F)c1)C(=O)O; ξThr(3S) = C[C@H](O[*:3])C(N[*:1])C(=O)[*:2]; X25 = C[C@H]1OCCN([*:1])[C@@H]1C(=O)[*:2]; Pro(4R-Me) = C[C@H]1CN[C@H](C(=O)O)C1; X24 = O=S(=O)(F)Oc1ccc(N*)cc1; CO = O=C([*:1])[*:2]

What was measured:
Test in all cases: NCI-60 cell line screen, 48 h; in the data active means GI50 below about 0.43 µM; inactive means the rest
MCF7 breast = system: MCF7 breast
HCT-116 colon = system: HCT-116 colon
HCC-2998 colon = system: HCC-2998 colon
HS 578T breast = system: HS 578T breast
NCI-H522 lung = system: NCI-H522 lung
NCI/ADR-RES ovarian = system: NCI/ADR-RES ovarian
CCRF-CEM leukemia = system: CCRF-CEM leukemia
TK-10 renal = system: TK-10 renal
UACC-257 melanoma = system: UACC-257 melanoma
A498 renal = system: A498 renal
SF-295 CNS = system: SF-295 CNS
SR leukemia = system: SR leukemia
T-47D breast = system: T-47D breast
SW-620 colon = system: SW-620 colon
SK-MEL-2 melanoma = system: SK-MEL-2 melanoma
SK-MEL-28 melanoma = system: SK-MEL-28 melanoma
M14 melanoma = system: M14 melanoma
NCI-H226 lung = system: NCI-H226 lung
UO-31 renal = system: UO-31 renal
LOX IMVI melanoma = system: LOX IMVI melanoma
HOP-62 NSCLC = system: HOP-62 NSCLC
ACHN renal = system: ACHN renal
RXF 393 renal = system: RXF 393 renal
CAKI-1 renal = system: CAKI-1 renal
BT-549 breast = system: BT-549 breast
OVCAR-5 ovarian = system: OVCAR-5 ovarian
NCI-H460 lung = system: NCI-H460 lung
A549 NSCLC = system: A549 NSCLC
SK-OV-3 ovarian = system: SK-OV-3 ovarian
KM12 colon = system: KM12 colon
SNB-19 CNS = system: SNB-19 CNS
MDA-MB-231 breast = system: MDA-MB-231 breast
MOLT-4 leukemia = system: MOLT-4 leukemia
UACC-62 melanoma = system: UACC-62 melanoma
SK-MEL-5 melanoma = system: SK-MEL-5 melanoma
SN12C renal = system: SN12C renal
PC-3 prostate = system: PC-3 prostate
K-562 leukemia = system: K-562 leukemia
SF-268 CNS = system: SF-268 CNS
HOP-92 NSCLC = system: HOP-92 NSCLC
HT29 colon = system: HT29 colon
OVCAR-3 ovarian = system: OVCAR-3 ovarian
HL-60(TB) leukemia = system: HL-60(TB) leukemia
U251 CNS = system: U251 CNS
IGROV1 ovarian = system: IGROV1 ovarian
SF-539 CNS = system: SF-539 CNS
MALME-3M melanoma = system: MALME-3M melanoma
RPMI-8226 leukemia = system: RPMI-8226 leukemia
SNB-75 CNS = system: SNB-75 CNS
OVCAR-8 ovarian = system: OVCAR-8 ovarian
786-0 renal = system: 786-0 renal
COLO 205 colon = system: COLO 205 colon
MDA-MB-435 = system: MDA-MB-435
EKVX NSCLC = system: EKVX NSCLC
DU-145 prostate = system: DU-145 prostate
OVCAR-4 ovarian = system: OVCAR-4 ovarian
HCT-15 colon = system: HCT-15 colon

C[C@@H]1C[C@H]2C(=O)O[C@@H](C)C(NC(=O)[C@H](Cc3cc(F)cc(F)c3)NC(=O)Nc3ccc(OS(=O)(=O)F)cc3)C(=O)N3CCC[C@H]3C(=O)N3CCO[C@H](C)[C@H]3C(=O)N[C@@H](CO)C(=O)N2C1 (stereo partly drawn) ({X24-CO}-[Phe(3,5-F2)][ξThr(3S)]P[X25]S[Pro(4R-Me)]; ester 2-C)
29.1 µM: TGI (SR leukemia)
62 µM: TGI (MDA-MB-435)
9.3 µM: TGI (NCI-H522 lung)
14.3 µM: TGI (HCT-116 colon)
20.4 µM: TGI (MDA-MB-231 breast)
3.59 µM: TGI (SK-MEL-2 melanoma)
8.45 µM: TGI (SK-OV-3 ovarian)
11.6 µM: TGI (SK-MEL-5 melanoma)
inactive: GI50 (MCF7 breast) 0.454 µM | GI50 (HCT-116 colon) 0.452 µM | GI50 (HCC-2998 colon) 1.33 µM | GI50 (HS 578T breast) 0.916 µM | GI50 (NCI-H522 lung) 0.497 µM | GI50 (NCI/ADR-RES ovarian) > 100 µM | GI50 (CCRF-CEM leukemia) 0.591 µM | GI50 (TK-10 renal) 6.22 µM | GI50 (UACC-257 melanoma) 1.51 µM | GI50 (A498 renal) 3.05 µM | GI50 (SF-295 CNS) 3.27 µM | GI50 (SR leukemia) 1.64 µM | GI50 (T-47D breast) 0.633 µM | GI50 (SW-620 colon) 1.61 µM | GI50 (SK-MEL-28 melanoma) 2.3 µM | GI50 (M14 melanoma) 2.76 µM | GI50 (NCI-H226 lung) 2.3 µM | GI50 (UO-31 renal) 23.7 µM | GI50 (LOX IMVI melanoma) 1.41 µM | GI50 (HOP-62 NSCLC) 2.81 µM | GI50 (ACHN renal) 10.1 µM | GI50 (RXF 393 renal) 3.16 µM | GI50 (CAKI-1 renal) 2.79 µM | GI50 (BT-549 breast) 0.853 µM | GI50 (OVCAR-5 ovarian) 3.58 µM | GI50 (NCI-H460 lung) 2.39 µM | GI50 (A549 NSCLC) 4.63 µM | GI50 (SK-OV-3 ovarian) 2.49 µM | GI50 (KM12 colon) 4.39 µM | GI50 (SNB-19 CNS) 0.598 µM | GI50 (MDA-MB-231 breast) 0.642 µM | GI50 (MOLT-4 leukemia) 2.12 µM | GI50 (UACC-62 melanoma) 1.75 µM | GI50 (SK-MEL-5 melanoma) 3.09 µM | GI50 (SN12C renal) 1.36 µM | GI50 (PC-3 prostate) 1.01 µM | GI50 (K-562 leukemia) 0.482 µM | GI50 (SF-268 CNS) 1.33 µM | GI50 (HOP-92 NSCLC) 0.927 µM | GI50 (HT29 colon) 2.69 µM | GI50 (OVCAR-3 ovarian) 0.622 µM | GI50 (U251 CNS) 0.769 µM | GI50 (IGROV1 ovarian) 2.67 µM | GI50 (SF-539 CNS) 2.44 µM | GI50 (MALME-3M melanoma) 3.23 µM | GI50 (SNB-75 CNS) 0.53 µM | GI50 (OVCAR-8 ovarian) 2.66 µM | GI50 (786-0 renal) 4.54 µM | GI50 (COLO 205 colon) 0.683 µM | GI50 (MDA-MB-435) 0.589 µM | GI50 (EKVX NSCLC) 3.2 µM | GI50 (DU-145 prostate) 3.48 µM | GI50 (OVCAR-4 ovarian) 2.38 µM | GI50 (HCT-15 colon) 15.3 µM
7.46 µM: TGI (SNB-75 CNS)
2.36 µM: TGI (RPMI-8226 leukemia)
34.8 µM: TGI (CAKI-1 renal)
23.7 µM: TGI (OVCAR-3 ovarian)
3.18 µM: TGI (HL-60(TB) leukemia)
22.4 µM: TGI (M14 melanoma)
> 100 µM: TGI (HS 578T breast) | TGI (NCI/ADR-RES ovarian) | TGI (CCRF-CEM leukemia) | TGI (TK-10 renal) | TGI (T-47D breast) | TGI (SW-620 colon) | TGI (SK-MEL-28 melanoma) | TGI (UO-31 renal) | TGI (LOX IMVI melanoma) | TGI (HOP-62 NSCLC) | TGI (NCI-H460 lung) | TGI (A549 NSCLC) | TGI (KM12 colon) | TGI (SNB-19 CNS) | TGI (SN12C renal) | TGI (PC-3 prostate) | TGI (K-562 leukemia) | TGI (SF-268 CNS) | TGI (U251 CNS) | TGI (IGROV1 ovarian) | TGI (SF-539 CNS) | TGI (OVCAR-8 ovarian) | TGI (786-0 renal) | TGI (EKVX NSCLC) | TGI (DU-145 prostate) | TGI (OVCAR-4 ovarian) | TGI (HCT-15 colon)
18.6 µM: TGI (HT29 colon)
24.8 µM: TGI (BT-549 breast)
64.7 µM: TGI (MCF7 breast) | TGI (UACC-62 melanoma)
18.7 µM: TGI (HCC-2998 colon)
8.97 µM: TGI (UACC-257 melanoma)
7.57 µM: TGI (HOP-92 NSCLC)
9.41 µM: TGI (NCI-H226 lung)
26.8 µM: TGI (OVCAR-5 ovarian)
45.2 µM: TGI (MALME-3M melanoma)
active: GI50 (SK-MEL-2 melanoma) 0.419 µM | GI50 (HL-60(TB) leukemia) 0.335 µM | GI50 (RPMI-8226 leukemia) 0.346 µM
35.3 µM: TGI (ACHN renal)
3.17 µM: TGI (COLO 205 colon)
13.1 µM: TGI (SF-295 CNS)
37.2 µM: TGI (RXF 393 renal)
69.4 µM: TGI (A498 renal)
29.6 µM: TGI (MOLT-4 leukemia)
